The nature of this data set: in vitro. Conditions: rat, gh3-tre-luc cells.

Structures are written as SMILES. Counter-ions that a name gives are not always drawn.

As usually defined, the CC50 is the concentration giving 50% cytotoxicity. A low value points to greater toxicity to the cells. Regarding `CC(=O)OCC(=O)[C@@]1(O)CC[C@H]2[C@@H]3C[C@H](C)C4=CC(=O)C=C[C@]4(C)[C@H]3[C@@H](O)C[C@@]21C` [Methylprednisolone acetate], the 50% cytotoxic concentration (CC50) at 24 h (AC50 (uM) modified / 1000) was over 50 µM.

As for `C[N+]1(CCC(C(N)=O)(c2ccccc2)c2ccccc2)CCCCC1` [Fenpiverinium bromide], where the note is “AC50 (uM) modified / 1000”, the CC50 at 24 h was over 50 µM. Turning to `O=S1(=O)CC=CC1` [3-Sulfolene], under “AC50 (uM) modified / 1000”, the CC50 at 24 h is over 90 µM. On the same count and under the same terms, for `CCOC(=O)c1c(C)n(C)c2ccc(O)cc12` [Mecarbinate] the value was over 50 µM. As to `Nc1nc(F)nc2c1ncn2[C@@H]1O[C@H](CO)[C@@H](O)[C@@H]1O` [Fludarabine], where the note is “AC50 (uM) modified / 1000”, the cytotoxic concentration (CC50) at 24 h was found to be 52 µM. Still for that read-out and setting: for `Cc1ncc([N+](=O)[O-])n1CC(C)O` (stereo not shown) [Secnidazole] the value was over 50 µM; for `Nc1cc(Cl)c([N+](=O)[O-])cc1O` [2-Amino-4-chloro-5-nitrophenol], 36.9 µM; for `Oc1ccc(Cl)c2c1CCC2` [Chlorindanol], over 50 µM. Still for that read-out and setting: for `Cc1cc(O)c(C(C)(C)C)cc1C(C)(C)C` [4,6-Di-tert-butyl-m-cresol] the value was 22.6 µM; for `O=S(=O)(O)c1ccccc1` [Benzenesulfonic acid], over 90 µM; for `COc1ccc(C(=O)c2ccc(OC)cc2O)c(O)c1` [2,2'-Dihydroxy-4,4'-dimethoxybenzophenone], over 90 µM.

`CC1(C)O[C@H]2CC(=O)OC[C@]23[C@H]2CC[C@@]4(C)[C@H](c5ccoc5)OC(=O)[C@H]5O[C@]54[C@]2(C)C(=O)C[C@@H]13` [Limoni]: the CC50 at 24 h (AC50 (uM) modified / 1000) was over 50 µM.

`CCN(CC)CC` [Triethylamine] gave a CC50 at 24 h (AC50 (uM) modified / 1000) of over 100 µM. On the same count and under the same terms, the same measure for `CCCCOCCOC(=O)COc1cc(Cl)c(Cl)cc1Cl` [2,4,5-T-butotyl]: over 90 µM. In the case of `Cc1ccc(OP(=O)(Oc2ccc(C)cc2C)Oc2ccc(C)cc2C)c(C)c1` [TXP], for the setting “AC50 (uM) modified / 1000”, the CC50 at 24 h is over 100 µM. Consider `O=P(O)(O)CP(=O)(O)O` [Medronic acid], for which, for the setting “AC50 (uM) modified / 1000”, the half-maximal cytotoxic concentration (CC50) at 24 h was over 50 µM. `CC(Cc1ccccc1)NCCn1cnc2c1c(=O)n(C)c(=O)n2C` (stereo not shown) [Fenethylline hydrochloride] displayed a CC50 at 24 h (AC50 (uM) modified / 1000, Tox21_110001=Tox21_112896, viability, 1 nM T3 present, 24 h) of over 90 µM. With `O=Cc1ccccc1Cl` [2-Chlorobenzaldehyde], under “AC50 (uM) modified / 1000”, the half-maximal cytotoxic concentration (CC50) at 24 h is over 90 µM. For the compound `CC(C)(Oc1ccc(Cl)cc1)C(=O)O` [Clofibric acid], the CC50 at 24 h (AC50 (uM) modified / 1000) is over 50 µM. Still for that read-out and setting: for `CC(C)=CCOc1ccc(/C=C/C(=O)c2ccc(OCC=C(C)C)cc2OCC(=O)O)cc1` [Sofalcone] the value was 43 µM.

For `C[C@H](N)[C@H](O)c1ccc(O)c(O)c1` [Levonordefrin], half-maximal cytotoxicity (AC50 (uM) modified / 1000, Tox21_110001=Tox21_112051, viability, 1 nM T3 present, 24 h) (CC50 at 24 h) was put at 22 µM. `CCCOc1ccc2nc(NC(=O)OC)[nH]c2c1` [Oxibendazole] returned a half-maximal cytotoxic concentration (CC50) at 24 h (AC50 (uM) modified / 1000) of 0.527 µM.

For the compound `O=C(Cl)c1c(Cl)c(Cl)c(C(=O)Cl)c(Cl)c1Cl` [2,3,5,6-Tetrachlorobenzene-1,4-dicarbonyl dichloride], under “AC50 (uM) modified / 1000”, the 50% cytotoxic concentration (CC50) at 24 h is over 90 µM. `COCCO` [2-Methoxyethanol] registered a CC50 at 24 h (AC50 (uM) modified / 1000) of over 90 µM.

The compound `C=CC(C)=O` [Methyl vinyl ketone] returned a CC50 at 24 h (AC50 (uM) modified / 1000, Tox21_110001=Tox21_200363, viability, 1 nM T3 present, 24 h) of over 90 µM. `COc1ccc2[nH]c([S+]([O-])Cc3ncc(C)c(OC)c3C)nc2n1` (stereo not shown) [Tenatoprazole] registered a CC50 at 24 h (AC50 (uM) modified / 1000) of 41.8 µM. `Cc1ccc(NC=O)c(C)c1` [N-(2,4-Dimethylphenyl)formamide] yielded a CC50 at 24 h (AC50 (uM) modified / 1000) of over 90 µM. `O=C(CCCN1CC=C(n2c(=O)[nH]c3ccccc32)CC1)c1ccc(F)cc1` [Droperidol]: the 50% cytotoxic concentration (CC50) at 24 h (AC50 (uM) modified / 1000) is over 50 µM. Same read-out and setting: for `Oc1nc(Cl)c(Cl)cc1Cl` [3,5,6-Trichloro-2-pyridinol] the value was over 90 µM. Same read-out and setting: the same measure for `CC(C)COC(=O)c1ccccc1O` [Isobutyl salicylate]: over 90 µM; for `C=CC(C)(C)C` [3,3-Dimethyl-1-butene]: over 90 µM. The same measure, in the same setting: the same measure for `c1ccc(CCc2ccccc2)cc1` [Bibenzyl]: over 90 µM; for `CC(C)(C)[C@]1(O)CCN2C[C@H]3c4ccccc4CCc4cccc(c43)[C@@H]2C1` [Butaclamol hydrochloride]: 22.9 µM. As for `CCOCCC(=O)OCC` [Ethyl 3-ethoxypropionate], the CC50 at 24 h (AC50 (uM) modified / 1000) is over 100 µM. As for `CCCCCCCCCC#N` [Decanenitrile], under “AC50 (uM) modified / 1000”, the CC50 at 24 h was over 90 µM. Same read-out and setting: for `CCC(=O)OCC(=O)[C@@]1(OC(=O)CC)[C@@H](C)C[C@H]2[C@@H]3CCC4=CC(=O)C=C[C@]4(C)[C@@]3(Cl)[C@@H](O)C[C@@]21C` [Beclazone] the value was over 50 µM; for `COC(=O)Nc1nc2ccc(C(=O)c3ccccc3)cc2[nH]1` [Mebendazole], 0.337 µM. The compound `C[C@]12CC[C@H](O)CC1=CC[C@@H]1[C@@H]2CC[C@]2(C)C(=O)CC[C@@H]12` [Dehydroepiandrosterone] displayed a cytotoxic concentration (CC50) at 24 h (AC50 (uM) modified / 1000) of over 90 µM. The compound `CCOC(=O)OC1=C(c2cc(C)ccc2C)C(=O)N[C@]12CC[C@@H](OC)CC2` [Spirotetramat] came in with a half-maximal cytotoxic concentration (CC50) at 24 h (AC50 (uM) modified / 1000) of over 90 µM. The same measure, in the same setting: for `c1ccc(CN(CC2=NCCN2)c2ccccc2)cc1` [Antazoline hydrochloride] the value was 21.1 µM; for `COc1ccc(OC)c(NC(=O)CC(C)=O)c1` [N-(2,5-Dimethoxyphenyl)-3-oxobutanamide], over 90 µM.

In turn, `CC(C)OC(=O)Nc1ccccc1` [Propham] registered a CC50 at 24 h (AC50 (uM) modified / 1000, Tox21_110001=Tox21_201664, viability, 1 nM T3 present, 24 h) of over 90 µM.

Under “AC50 (uM) modified / 1000”, `C=CC(=C)CCCC(C)(C)OC(C)=O` [2-methyl-6-methylideneoct-7-en-2-yl acetate] registered a CC50 at 24 h of over 90 µM. Same read-out and setting: for `CC(C)NC(=O)NC(C)C` [1,3-Dipropan-2-ylurea] the value was over 90 µM. For the compound `S=C(SSC(=S)N1CCCCC1)N1CCCCC1` [Dicyclopentamethylenethiuram disulfide], the midpoint of cytotoxicity (AC50 (uM) modified / 1000, Tox21_110001=Tox21_113156, viability, 1 nM T3 present, 24 h), the CC50 at 24 h, lay at 0.373 µM.

`C[N+]1(CCCCC[N+]2(C)CCCC2)CCCC1` [Pentolinium ditartrate] displayed a cytotoxic concentration (CC50) at 24 h (AC50 (uM) modified / 1000) of over 50 µM.

`CCC(=O)O[C@@H]1CC(=O)O[C@H](C)C/C=C/C=C/[C@H](O)[C@H](C)C[C@H](CC=O)[C@H](O[C@@H]2O[C@H](C)[C@@H](O[C@H]3C[C@@](C)(O)[C@@H](OC(=O)CC)[C@H](C)O3)[C@H](N(C)C)[C@H]2O)[C@H]1OC` [Midecamycin]: the half-maximal cytotoxic concentration (CC50) at 24 h (AC50 (uM) modified / 1000) is over 20 µM.

Regarding `COC(=O)Cc1cccc2ccccc12` [Methyl 1-naphthaleneacetate], where the note is “AC50 (uM) modified / 1000”, the CC50 at 24 h was over 90 µM.

For the compound `C1=Cc2ccccc2C1` [Indene], the half-maximal cytotoxic concentration (CC50) at 24 h (AC50 (uM) modified / 1000) is over 90 µM. The same measure, in the same setting: the same measure for `FC(F)(F)c1cccc(Cl)c1` [3-Chlorobenzotrifluoride]: over 90 µM; for `CN(C)CCOC(c1ccc(Cl)cc1)c1ccccn1` (stereo not shown) [Carbinoxamine maleate]: 23 µM. The same measure, in the same setting: the same measure for `CC(=O)Oc1cc(C(C)C)c(OCCN(C)C)cc1C` [Moxisylyte hydrochloride]: over 20 µM. Still for that read-out and setting: the same measure for `Nc1cccc2c(N)cccc12` [1,5-Naphthalenediamine]: over 90 µM. Under “AC50 (uM) modified / 1000, Tox21_110001=Tox21_111806, viability, 1 nM T3 present, 24 h”, `C[C@@H](Cc1ccccc1)NCc1ccccc1Cl` [Clobenzorex hydrochloride] had a half-maximal cytotoxic concentration (CC50) at 24 h of over 50 µM.

Consider `COc1cc2nc(N3CCN(C(=O)c4ccco4)CC3)nc(N)c2cc1OC` [Prazosin], for which the cytotoxic concentration (CC50) at 24 h (AC50 (uM) modified / 1000) was 8.15 µM.

`Clc1cc(Cl)c(Cl)nc1Cl` [2,3,5,6-Tetrachloropyridine] gave a CC50 at 24 h (AC50 (uM) modified / 1000) of over 90 µM. Same read-out and setting: the same measure for `O=C(O)c1cc2ccccc2nc1C(=O)O` [2,3-Quinolinedicarboxylic acid]: over 90 µM.

As for `O=C(O)c1ccccc1C(c1ccc(O)cc1)c1ccc(O)cc1` [Phenolphthalin], where the note is “AC50 (uM) modified / 1000”, the CC50 at 24 h is over 90 µM.
